# From patent US20220401428A1, “Method for Treatment of Alzheimer's Disease” (University of Kentucky Research Foundation, priority 2019, published 2022)
# “Also recorded” adds a separate entry of the source.
# Tests used:
# [1] = system: LRP1; assay: LRP1 protein expression in rat brain microvascular ECs (Western blot, immunofluorescence); format: cell-based; details: ECs, 24 hours, Western blot
# Excerpt: To study the role of miRNA signaling in amylin-induced suppression of endothelial LRP1 expression, transfection of rat brain microvascular ECs was used with miR-103-3p (MCR01039)[…](SEQ ID NO: 5), miR-107-3p (MCR01045)[…](SEQ ID NO: 6) and control (MCH00000) (https://www.abmgood.com/mirna-mimic-negative-control-mch00000.html). Antagomir miR-103-3p (IH-320345-05-0005)(SEQ ID NO: 5), miR-107-3p (IH-320348-05-0005)(SEQ ID NO: 6) and negative control (IN-001005-01-05) (https://www.biocompare.com/22445-RNA/4995709-miRIDIAN-microRNA-Hairpin-Inhibitor-Negative-Control-1-5-nmol/#productspecs) (Dharmacon Inc.) were used in an attempt to rescue LRP1 expression. All transfections were done using RNAiMAX (Invitrogen) as per manufacturer's recommended protocol. Briefly, ECs were plated at 50% confluency in 6-well plates followed by co-transfection with either 100 nM of 103-3p and 107-3p mimics or antagomirs along with their respective negative controls. After 12-hours, antagomir-treated cell groups were further treated with 10 uM human amylin for 24-hours. After 36-hours of transfection, cells were harvested for Western blot analysis.
# In immunofluorescence experiments, formalin-fixed, paraffin-embedded human brain tissue was used and processed as previously described^16,18,39, brain capillaries from HIP and WT rats isolated as previously described^18. and cultured ECs. Anti-amylin (1:200; clone E5; SC-377530; Santa Cruz), anti-collagen IV (1:500; ab6586; abcam), anti-alpha smooth muscle actin-Alexa Fluor 405 (1:200; ab210128, abcam), anti-caveolin-1 (1:100; sc-894; Santa Cruz, Tex.), anti-LRP1 (1:500; sc-57351; Santa Cruz), anti-4HNE (1:200; ab46545; abcam) were the primary antibodies. Secondary antibodies were: Alexa Fluor 488 conjugated anti-mouse IgG (1:300; A11029; Invitrogen), Alexa Fluor 568 conjugated anti-rabbit IgG (1:200; A11036; Invitrogen), Alexa Fluor 568 conjugated anti-mouse IgG (1:300; A11004; Invitrogen). Nuclei were counterstained with DAPI mounting media. For triple staining of human brain tissues, smooth muscle actin-Alexa Fluor 405 antibody was added after staining with human amylin and collagen IV; DAPI free mounting media was used. For Thioflavin S staining, after secondary antibody incubation, brain slides were incubated in 0.5% Thioflavin S for 30 minutes at room temperature. Slides were then incubated for 3 minutes in 70% ethanol, 5 minutes in 0.2% Sudan black before washing and mounting. Immunocytochemistry was performed as described previously (39, 40).
# Western blot analysis was performed on isolated brain capillaries, brain tissue homogenate and plasma from rats. Tissues were processed as described previously^16,18,28,39. RIPA buffer with 2% SDS was used to retrieve Aβ monomers from frozen brain samples^41. […]
# [2] = system: LRP1 mRNA; assay: LRP1 mRNA levels in ECs by qRT-PCR; format: cell-based; details: 10 μM, vs control cells and ECs incubated with rat amylin
# Excerpt: (§1) Total RNA was isolated using RNAqueous total RNA isolation kit according to manufacturer's protocol (Invitrogen, AM1914). cDNA synthesis and amplification were done using iTaq Universal SYBR Green One-Step Kit (Biorad; 1725151) with the following primer sequences: LRP1: forward (Fwd) 5′-[…]-3′(SEQ ID NO: 7), reverse (Rev) 5′-[…]-3′(SEQ ID NO: 8); and GAPDH: Fwd 5′- […]-3′(SEQ ID NO: 9), Rev 5′-GTTTGCTCCAACCAACTGC-3′(SEQ ID NO: 10) (IDT, Inc, USA). For miRNA quantification, cDNA was synthesized from total RNA using miRNA cDNA synthesis kit with poly (A) polymerase (ABMgood, G902). cDNA was amplified using SYBR Green mastermix (Biorad) along with miRNA specific primers from (rno-miR-103-3p, MPR00332; rno-miR-107-3p, MPRO0335; RNU6 house Keeping gene, MP-r99998) (ABMgood). Data were analyzed using the 2^−ΔΔCt method, and experiments were normalized to GAPDH or U6 miRNA
# [3] = system: rat brain microvascular endothelial cells; assay: MTS cytotoxicity assay on ECs; format: cell-based; details: 500 nM, 1 μM, 5 μM and 10 μM, 24 hours
# Excerpt: CellTiter 96® AQueous One Solution Cell Proliferation Assay (MTS) (Promega) was used to assess cytotoxicity of aggregated amylin on the EC monolayer.
# [4] = system: EC monolayer; assay: Structural integrity of the EC monolayer in the in vitro BBB model (TEER, FITC-Dextran, morphology); format: cell-based, rat; details: 10 μM, 24 hours
# Procedure: (§2) In vitro BBB model of Aβ42 transcytosis with amylin-induced stress at the blood side. An in vitro BBB model described previously^37 was used with modifications related to amylin deposition on the EC monolayer and consequent effects on the Aβ transport across the EC monolayer. Briefly, primary rat brain microvascular endothelial cells (Cell Applications Inc) were plated on 24-well Transwell-Clear inserts with 0.4 μm pore polycarbonate membrane (Costar, Corning, N.Y., USA) and primary rat brain astrocytes (Sigma) were cultured at the bottom wells. Barrier integrity was measured from the trans-endothelial electrical resistance (TEER) as described previously^37,38 using the EVOM2 meter with STX-3 electrodes (World Precision Instruments). Maximum TEER was achieved within 8-10 days in culture. BBB permeabilities to human amylin (10 μM; Anaspec; AS-60254-1), rat amylin (10 μM; American Peptide) and DMSO (1 mM; vehicle) were assessed using FITC-Dextran 4 kDa (Fisher Scientific) diluted in Hank's Balanced Salt Solution (HBSS) buffer with 0.1% BSA (HBSS-BSA) as a paracellular diffusion marker. Permeability coefficients were calculated using the formula; P=(ΔQ/Δt)/(A*C0), (ΔQ/Δt)=rate of FITC-Dextran change; A=surface area of insert (0.33cm^2); C0=Initial FITC-Dextran input.
# [5] = system: EC monolayer; assay: Aβ42 transcytosis across the in vitro BBB model; format: cell-based, rat; details: 10 μM at the luminal side for 24 hours, then Aβ42-FAM at the abluminal side for 1 hour; vs vehicle; P<0.05
# Procedure: as §2, with “input. […]” for “input.”
# [6] = system: rat brain microvascular ECs; assay: Lipid peroxidation and ROS in cultured rat brain microvascular ECs; format: cell-based; details: 10 μM amylin, 24-hour incubation
# Procedure: Lipid peroxidation and ROS were measured in cultured rat brain microvascular ECs using previously published protocols^26,39.
# [7] = system: miR-103 and miR-107; assay: miR-103 and miR-107 expression in ECs by qRT-PCR; format: cell-based, rat; details: ECs incubated with human amylin
# Excerpt: as §1
substance,measurement,setting,value
human amylin,reduction of LRP1 expression,[1]; 10 μM,more than 50%
same,LRP1 protein levels against concentration,[1]; various concentrations (500 nM to 10 μM),decreased with increasing concentrations
same,LRP1 mRNA levels,[2],greatly elevated
same,viability of the ECs,[3],not significant; also recorded: not affected
same,EC monolayer morphology,[4],"neither the intercellular space, as assessed from FITC-dextran permeability (FIG. S4C-D), nor EC monolayer morphology (FIG. 18E) were significantly altered"
same,TEER,[4],decreased
same,intercellular space assessed from FITC-dextran (4 kDa) permeability,[4],"neither the intercellular space, as assessed from FITC-dextran permeability (FIG. S4C-D), nor EC monolayer morphology (FIG. 18E) were significantly altered"
same,reduction of the Aβ transcytosis quotient,[5],20+5%
same,generation of ROS,[6],increased generation of ROS
same,lipid peroxidation of the EC membranes,[6],lipid peroxidation of the EC membranes
same,miR-103 and miR-107 levels,[7],elevated levels of miR-103 and miR-107
